This note sets out measurements from patent US9115137B2, “2,3,4,5-tetrahydro-1H-pyrido[4,3-B]indole compounds and methods of use thereof” (priority 2008, dated 2015).

Assay [1] concerns the target T1, human recombinant histamine H2 receptor (Homo sapiens, UniProt P25021).
T1 construct: expressed in transfected cells; host or cells: CHO-K1 cells
Kind of assay: Histamine H2 radioligand binding ([125I]aminopotentidine). The settings on record: compound at 1 μM; CHO K1 cells; read-out: Histamine Binding (1 μM) H2, percent inhibition of specific binding. As to the method: To evaluate in radioligand binding assays the activity of compounds of the invention, human recombinant histamine H2 receptor expressed in Chinese hamster ovary (CHO) K1 cells (Ruat, M., Proc. Natl. Acad. Sci. USA. 87(5):1658, 1990) in a 50 mM Phosphate buffer, pH 7.4 was used. Compounds of the invention were incubated with 0.1 nM [^125I]aminopotentidine for 120 minutes at 25° C. Non-specific binding was estimated in the presence of 3 μM Tiotidine. Receptor proteins were filtered and washed, the filters were then counted to determine [^125I]Aminopotentidine specifically bound. Compounds were screened at 1 μM, using 1% DMSO as vehicle. Biochemical assay results are presented as the percent inhibition of specific binding in Table 5.

Assay [2] deals with T2, human recombinant adrenergic α2A receptor (Homo sapiens, UniProt P08913).
T2 construct: expressed in transfected cells; host or cells: insect Sf9 cells
T2 sequence (P08913 1-465): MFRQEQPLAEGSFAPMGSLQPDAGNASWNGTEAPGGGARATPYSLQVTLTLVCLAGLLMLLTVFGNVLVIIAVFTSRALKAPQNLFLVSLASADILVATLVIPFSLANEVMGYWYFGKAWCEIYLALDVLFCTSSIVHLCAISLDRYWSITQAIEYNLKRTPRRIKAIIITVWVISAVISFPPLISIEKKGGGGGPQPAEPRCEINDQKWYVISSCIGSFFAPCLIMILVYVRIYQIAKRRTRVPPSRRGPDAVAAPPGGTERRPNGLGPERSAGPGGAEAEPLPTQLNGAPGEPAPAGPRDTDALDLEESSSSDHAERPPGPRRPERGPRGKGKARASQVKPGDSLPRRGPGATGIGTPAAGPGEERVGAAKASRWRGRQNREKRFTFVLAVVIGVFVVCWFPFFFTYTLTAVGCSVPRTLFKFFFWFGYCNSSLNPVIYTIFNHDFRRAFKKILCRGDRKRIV
Description: Adrenergic α2A radioligand binding ([3H]MK-912). The settings on record: compound at 1 μM; insect Sf9 cells; read-out: Adrenergic (1 μM) α2A, percent inhibition of specific binding. The protocol: To evaluate in radioligand binding assays the activity of compounds of the invention, human recombinant adrenergic α2A receptor expressed in insect Sf9 cells (Uhlen S et al. J Pharmacol Exp Ther. 271:1558, 1994) in a modified Tris-HCl buffer (50 mM Tris-HCl, pH 7.4, 12.5 mM MgCl2, 2 mM EDTA) was used. Compounds of invention were incubated with 1 nM [^3H]MK-912 for 60 minutes at 25° C. MK912 is (2S-trans)-1,3,4,5′,6,6′,7,12b-octahydro-1′,3′-dimethyl-spiro[2H-benzofuro[2,3-a]quinolizine-2,4′(1′H)-pyrimidin]-2′(3′H)-one hydrochloride Non-specific binding was estimated in the presence of 10 μM WB-4101 (2-(2,6-Dimethoxyphenoxyethyl)aminomethyl-1,4-benzodioxane hydrochloride). Receptor proteins were filtered and washed, the filters were then counted to determine [^3H]MK-912 specifically bound. Compounds were screened at 1 μM or lower, using 1% DMSO as vehicle. Biochemical assay results are presented as the percent inhibition of specific binding in Table 6.

In assay [3] the target is T3, human recombinant serotonin (5-Hydroxytryptamine) 5-HT2C receptor (Homo sapiens, UniProt P28335).
T3 construct: expressed in transfected cells; host or cells: CHO-K1 cells
T3 sequence (P28335 33-458): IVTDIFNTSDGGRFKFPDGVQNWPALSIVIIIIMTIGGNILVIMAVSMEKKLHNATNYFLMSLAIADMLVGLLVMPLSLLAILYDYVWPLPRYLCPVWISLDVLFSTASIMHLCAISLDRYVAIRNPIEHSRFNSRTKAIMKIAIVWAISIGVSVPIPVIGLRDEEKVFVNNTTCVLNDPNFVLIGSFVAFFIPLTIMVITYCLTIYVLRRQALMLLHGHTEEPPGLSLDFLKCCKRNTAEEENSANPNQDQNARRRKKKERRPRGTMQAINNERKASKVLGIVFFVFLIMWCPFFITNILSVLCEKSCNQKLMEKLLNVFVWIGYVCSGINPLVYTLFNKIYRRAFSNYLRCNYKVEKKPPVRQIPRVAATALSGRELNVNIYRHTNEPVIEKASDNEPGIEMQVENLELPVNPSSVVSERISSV
Kind of assay: Serotonin 5-HT2C radioligand binding ([3H]Mesulergine). The note with it: compound at 1 μM; CHO-K1 cells; read-out: Serotonin (1 μM) 5-HT2C, percent inhibition of specific binding. As to the method:
To evaluate in radioligand binding assays the activity of compounds of the invention, human recombinant serotonin (5-Hydroxytryptamine) 5-HT2C receptor expressed in Chinese hamster ovary (CHO-K1) cells (Wolf, W. A. and Schutz, J. S., J. Neurochem. 69:1449, 1997) in a modified Tris-HCl buffer (50 mM Tris-HCl, pH 7.4, 0.1% Ascorbic Acid, 10 μM Pargyline) was used. Compounds of the invention were incubated with 1 nM [^3H]Mesulergine for 60 minutes at 25° C. Non-specific binding was estimated in the presence of 1 μM Mianserin. Receptor proteins were filtered and washed, the filters were then counted to determine [^3H]Mesulergine specifically bound. Compounds were screened at 1 μM or lower, using 1% DMSO as vehicle. Biochemical assay results are presented as the percent inhibition of specific binding in Table 7.

Assay [4] has as its target T4, human recombinant serotonin (5-Hydroxytryptamine) 5-HT6 receptor (Homo sapiens, UniProt P50406).
T4 construct: expressed in transfected cells; host or cells: human HeLa cells
Kind of assay: Serotonin 5-HT6 radioligand binding ([3H]LSD). The settings on record: compound at 1 μM; HeLa cells; read-out: Serotonin (1 μM) 5-HT6, percent inhibition of specific binding. The protocol: To evaluate in radioligand binding assays the activity of compounds of the invention, human recombinant serotonin (5-Hydroxytryptamine) 5-HT6 receptor expressed in human HeLa cells (Monsma, F. J. Jr. et al., Mol. Pharmacol. 43:320, 1993) in a modified Tris-HCl buffer (50 mM Tris-HCl, pH 7.4, 150 mM NaCl, 2 mM Ascorbic Acid, 0.001% BSA) was used. Compounds of the invention were incubated with 1.5 nM [3H]Lysergic acid diethylamide (LSD) for 120 minutes at 37° C. Non-specific binding was estimated in the presence of 5 μM Serotonin (5-HT). Receptor proteins were filtered and washed, the filters were then counted to determine [3H]LSD specifically bound. Compounds were screened at 1 μM or lower, using 1% DMSO as vehicle. Biochemical assay results are presented as the percent inhibition of specific binding in Table 7.

T1 sequence (P25021 whole entry): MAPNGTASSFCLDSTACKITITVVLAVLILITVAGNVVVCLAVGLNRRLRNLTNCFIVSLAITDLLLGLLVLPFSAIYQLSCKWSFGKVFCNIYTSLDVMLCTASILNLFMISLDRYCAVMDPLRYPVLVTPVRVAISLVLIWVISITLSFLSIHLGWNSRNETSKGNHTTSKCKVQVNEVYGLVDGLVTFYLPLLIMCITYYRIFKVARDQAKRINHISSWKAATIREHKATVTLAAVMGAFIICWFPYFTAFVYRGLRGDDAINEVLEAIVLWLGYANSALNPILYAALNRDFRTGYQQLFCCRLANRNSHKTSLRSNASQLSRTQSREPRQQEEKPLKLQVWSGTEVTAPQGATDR
T4 sequence (P50406 whole entry): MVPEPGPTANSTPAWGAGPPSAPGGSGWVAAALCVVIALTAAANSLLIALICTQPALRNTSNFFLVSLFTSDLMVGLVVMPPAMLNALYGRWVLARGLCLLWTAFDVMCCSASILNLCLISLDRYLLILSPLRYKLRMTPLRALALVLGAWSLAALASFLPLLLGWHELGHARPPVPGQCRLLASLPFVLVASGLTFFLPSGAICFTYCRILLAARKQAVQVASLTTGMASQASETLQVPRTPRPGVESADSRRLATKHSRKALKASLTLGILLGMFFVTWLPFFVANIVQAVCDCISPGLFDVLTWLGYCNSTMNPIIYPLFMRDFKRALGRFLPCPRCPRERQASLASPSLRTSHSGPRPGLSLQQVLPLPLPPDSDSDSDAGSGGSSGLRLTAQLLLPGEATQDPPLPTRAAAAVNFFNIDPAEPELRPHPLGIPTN

The inhibition is the change of the read-out against control, counted positive when it falls. For the molecule `CNC(=O)CCn1c2c(c3cc(C)ccc31)CN(C)CC2` [Compound 1, 3-(1,2,3,4-tetrahydro-2,8-dimethylpyrido[4,3-b]indol-5-yl)-N-methylpropanamide], the inhibition at 1 µM in assay [1] was 8%; in assay [2], 18%; in assay [3], 20%; in assay [4] it was 8%.

In the case of `Cc1ccc2c(c1)c1c(n2CC(=O)NCc2ccccc2)CCN(C)C1` [Compound 25, N-benzyl-2-(1,2,3,4-tetrahydro-2,8-dimethylpyrido[4,3-b]indol-5-yl)acetamide], the inhibition at 1 µM in assay [1] is 9%; in assay [2], 2%; in assay [3], 61%; in assay [4], 58%.

Turning to `Cc1ccc2c(c1)c1c(n2CCC(=O)NC2CCCC2)CCN(C)C1` [Compound 4, N-cyclopentyl-3-(1,2,3,4-tetrahydro-2,8-dimethylpyrido[4,3-b]indol-5-yl)propanamide], the inhibition at 1 µM in assay [1] amounted to 20%; in assay [2], 45%; in assay [3], 36%; in assay [4], 28%.

Take `Cc1ccc2c(c1)c1c(n2CCNC(=O)c2ccc(F)cc2Cl)CCN(C)C1` [Compound 63, 2-chloro-4-fluoro-N-(2-(1,2,3,4-tetrahydro-2,8-dimethylpyrido[4,3-b]indol-5-yl)ethyl)benzamide]: the inhibition at 1 µM in assay [1] was 35%; in assay [2] it was 65%; in assay [3] it was 72%; in assay [4], 31%.

In the case of `Cc1ccc2c(c1)c1c(n2CCC(=O)NCC2CCCCC2)CCN(C)C1` [Compound 30, N-(cyclohexylmethyl)-3-(1,2,3,4-tetrahydro-2,8-dimethylpyrido[4,3-b]indol-5-yl)propanamide], the inhibition at 1 µM came to 41% in assay [1], 74% in assay [2], 93% in assay [3] and 18% in assay [4].

In the case of `CN1CCc2c(c3cc(Cl)ccc3n2CCC(N)=O)C1` [Compound 67, 3-(8-chloro-1,2,3,4-tetrahydro-2-methylpyrido[4,3-b]indol-5-yl)propanamide], the inhibition at 1 µM was -6% in assay [1], 79% in assay [2], 65% in assay [3] and 24% in assay [4].

As to `C#CCn1c2c(c3cc(C)ccc31)CN(C)CC2` [CD73, 2,8-dimethyl-5-(prop-2-ynyl)-2,3,4,5-tetrahydro-1H-pyrido[4,3-b]indole], the inhibition at 1 µM is 19% in assay [1], 70% in assay [2], 92% in assay [3] and 83% in assay [4].

`Cc1ccc2c(c1)c1c(n2CCO)CCN(C)C1` [CD90, 2-(2,8-dimethyl-3,4-dihydro-1H-pyrido[4,3-b]indol-5(2H)-yl)ethanol]: the inhibition at 1 µM in assay [1] came out at 11%; in assay [2], 22%; in assay [3], 91%; in assay [4] it was 7%.

Turning to `CCOC(=O)Cn1c2c(c3cc(Cl)ccc31)CN(C)CC2` [Compound 10, ethyl 2-(8-chloro-1,2,3,4-tetrahydro-2-methylpyrido[4,3-b]indol-5-yl)acetate], the inhibition at 1 µM in assay [1] is 28%; in assay [2] it was 40%; in assay [3], 92%; in assay [4], 69%.

For the molecule `CN1CCc2c(c3cc(Cl)ccc3n2CC(=O)OC(C)(C)C)C1` [Compound 12, tert-butyl 2-(8-chloro-1,2,3,4-tetrahydro-2-methylpyrido[4,3-b]indol-5-yl)acetate], the inhibition at 1 µM was determined as 40% in assay [1], 12% in assay [2], 83% in assay [3] and 67% in assay [4].

Regarding `CCNC(=O)Cn1c2c(c3cc(C)ccc31)CN(C)CC2` [Compound 22, N-ethyl-2-(1,2,3,4-tetrahydro-2,8-dimethylpyrido[4,3-b]indol-5-yl)acetamide], the inhibition at 1 µM worked out at 11% in assay [1], 40% in assay [2], 81% in assay [3] and 27% in assay [4].
